Source: ChEMBL document CHEMBL1201862, “PubChem BioAssay data set” (2004)
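Cultured in 96-well plates, cells were exposed to test compound for 48 hours across five concentrations. GI50 = concentration required for 50% inhibition of growth.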 The source made the active and inactive calls. Rule as the data show it: active = GI50 up to about 1.1 µM and inactive = higher.

Assays:
Test in all cases: inhibition of tumour cell growth, NCI panel, 48 h
SNB-19 = system: SNB-19
NCI-H226 = system: NCI-H226
OVCAR-4 = system: OVCAR-4
HCT-116 = system: HCT-116
BT-549 = system: BT-549
U-251 = system: U-251
MDA-MB-231 = system: MDA-MB-231
EKVX = system: EKVX
SNB-75 = system: SNB-75
NCI-H460 = system: NCI-H460
PC-3 = system: PC-3
HCT-15 = system: HCT-15
KM-20L2 = system: KM-20L2
SK-MEL-5 = system: SK-MEL-5
RPMI-8226 = system: RPMI-8226
COLO 205 = system: COLO 205
ACHN = system: ACHN
T47D = system: T47D
SR = system: SR
CAKI-1 = system: CAKI-1

Measured: GI50

Cc1cc(NC(=O)NC(=O)c2ccccc2N(C)C)ccc1Oc1ncc(Br)cn1
0.202 µM: HCT-15
active: SNB-19 0.532 µM | HCT-116 0.439 µM | BT-549 0.731 µM | U-251 0.497 µM | SNB-75 0.135 µM | NCI-H460 0.403 µM | PC-3 0.333 µM | KM-20L2 0.284 µM | SK-MEL-5 0.179 µM | RPMI-8226 0.451 µM | COLO 205 0.78 µM | SR 0.0541 µM
inactive: NCI-H226 9.27 µM | OVCAR-4 6.68 µM | MDA-MB-231 1.45 µM | EKVX 1.96 µM | ACHN 3.05 µM | T47D 1.61 µM

N#C/C(=C\c1cc2ccccc2c2ccccc12)c1ccccc1
inactive: SNB-19 8.99 µM | NCI-H226 43.8 µM | OVCAR-4 11.2 µM | HCT-116 5.3 µM | U-251 5.78 µM | CAKI-1 7.76 µM | EKVX 20 µM | SNB-75 2.31 µM | NCI-H460 4.67 µM | KM-20L2 3.9 µM | SK-MEL-5 5.38 µM | RPMI-8226 6.59 µM | COLO 205 3.43 µM | ACHN 14.5 µM | SR 2.9 µM
5.24 µM: HCT-15

N#C/C(=C\c1c[nH]c2ccccc12)C(=O)c1ccc(O)c(O)c1
22.9 µM: HCT-15
inactive: SNB-19 32.4 µM | NCI-H226 47.4 µM | OVCAR-4 27.2 µM | HCT-116 31.4 µM | BT-549 11.1 µM | U-251 20.4 µM | CAKI-1 41.5 µM | EKVX 34.8 µM | SNB-75 41 µM | NCI-H460 24.5 µM | PC-3 33.8 µM | KM-20L2 55.5 µM | SK-MEL-5 35.5 µM | RPMI-8226 15.4 µM | COLO 205 32.7 µM | ACHN 27.8 µM | T47D 31 µM | SR 9.82 µM
